According to patent publication US20240254174A1 (priority 2023, published 2024):
Several values for one entry are separate records, joined by “and”; a condition that tells them apart may be missing. Equal values may be shown once. Entries after “also recorded” stand apart in the source; their conditions may differ.

Legend:
Pdcd4 protein = format: cell-based
Pdcd4 = settings: mouse, in vivo
BDNF [1] = format: cell-based
BDNF [2] = settings: mouse, in vivo
Target sequence in this assay (P21237 131-249): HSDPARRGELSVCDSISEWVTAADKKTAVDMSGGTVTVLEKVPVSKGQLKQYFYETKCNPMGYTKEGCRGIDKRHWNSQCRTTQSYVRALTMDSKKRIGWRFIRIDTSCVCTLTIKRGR

α7 nAChR [3] = molecular target: T1, α7 nAChR (Homo sapiens, UniProt P36544); experiment: cell-based; settings: read-out: inhibition of ACh-mediated currents on α7 nAChR
T1 sequence (P36544 23-502 limits assumed): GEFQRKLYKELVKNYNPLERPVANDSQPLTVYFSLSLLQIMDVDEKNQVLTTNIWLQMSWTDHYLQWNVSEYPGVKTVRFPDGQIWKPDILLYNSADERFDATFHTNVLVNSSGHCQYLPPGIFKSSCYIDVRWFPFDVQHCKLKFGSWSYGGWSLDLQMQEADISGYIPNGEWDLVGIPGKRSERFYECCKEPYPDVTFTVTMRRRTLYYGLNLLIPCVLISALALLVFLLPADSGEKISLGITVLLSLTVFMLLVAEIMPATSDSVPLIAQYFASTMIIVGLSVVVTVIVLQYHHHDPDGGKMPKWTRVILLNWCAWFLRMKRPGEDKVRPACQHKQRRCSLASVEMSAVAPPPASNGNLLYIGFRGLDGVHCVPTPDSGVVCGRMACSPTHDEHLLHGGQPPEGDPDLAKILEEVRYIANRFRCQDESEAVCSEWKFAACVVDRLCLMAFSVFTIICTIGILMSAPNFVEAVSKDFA

α9α10 nAChR = α9α10 nAChR (Homo sapiens, UniProt Q9GZZ6+Q9UGM1); experiment: cell-based
Sequence of α9α10 nAChR (Q9UGM1 26-479 limits assumed): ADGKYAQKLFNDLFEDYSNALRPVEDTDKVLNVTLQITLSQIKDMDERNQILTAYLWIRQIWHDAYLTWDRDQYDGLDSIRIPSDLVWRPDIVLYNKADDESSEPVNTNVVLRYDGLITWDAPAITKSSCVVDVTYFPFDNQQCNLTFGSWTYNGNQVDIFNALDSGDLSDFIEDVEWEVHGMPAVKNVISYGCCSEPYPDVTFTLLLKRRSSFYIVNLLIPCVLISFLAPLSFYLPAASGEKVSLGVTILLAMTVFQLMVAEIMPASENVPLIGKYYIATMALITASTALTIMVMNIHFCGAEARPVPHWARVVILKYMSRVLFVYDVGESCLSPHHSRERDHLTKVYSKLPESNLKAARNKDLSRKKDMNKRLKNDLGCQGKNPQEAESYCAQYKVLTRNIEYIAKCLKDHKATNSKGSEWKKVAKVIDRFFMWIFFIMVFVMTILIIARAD
Sequence of α9α10 nAChR (Q9GZZ6 25-450 limits assumed): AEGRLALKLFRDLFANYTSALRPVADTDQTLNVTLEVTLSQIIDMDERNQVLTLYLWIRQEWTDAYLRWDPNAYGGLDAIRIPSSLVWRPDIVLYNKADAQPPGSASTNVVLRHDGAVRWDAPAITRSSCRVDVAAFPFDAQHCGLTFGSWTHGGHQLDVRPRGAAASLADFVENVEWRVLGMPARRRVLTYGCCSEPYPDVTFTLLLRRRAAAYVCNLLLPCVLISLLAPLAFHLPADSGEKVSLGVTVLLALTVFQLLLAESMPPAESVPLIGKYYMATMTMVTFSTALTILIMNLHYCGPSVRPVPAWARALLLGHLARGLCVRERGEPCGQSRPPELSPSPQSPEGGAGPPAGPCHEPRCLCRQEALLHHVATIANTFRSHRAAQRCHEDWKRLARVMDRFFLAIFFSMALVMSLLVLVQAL

nAChR subtypes = format: cell-based, Human
α7 nAChR [4] = molecular target: T1, α7 nAChR; experiment: cell-based; format: cell-based
[5] = system: α7-nAChR transfected N2a cells; format: cell-based
[6] = system: non-transfected N2a cells
[7] = molecular target: α9α10 nAChR, expressed in Xenopus laevis oocytes (Human) (UniProt Q9UGM1); experiment: cell-based or functional assay
Sequence of α9α10 nAChR, expressed in Xenopus laevis oocytes (Human) (Q9UGM1 23-479, chain 1 of 2): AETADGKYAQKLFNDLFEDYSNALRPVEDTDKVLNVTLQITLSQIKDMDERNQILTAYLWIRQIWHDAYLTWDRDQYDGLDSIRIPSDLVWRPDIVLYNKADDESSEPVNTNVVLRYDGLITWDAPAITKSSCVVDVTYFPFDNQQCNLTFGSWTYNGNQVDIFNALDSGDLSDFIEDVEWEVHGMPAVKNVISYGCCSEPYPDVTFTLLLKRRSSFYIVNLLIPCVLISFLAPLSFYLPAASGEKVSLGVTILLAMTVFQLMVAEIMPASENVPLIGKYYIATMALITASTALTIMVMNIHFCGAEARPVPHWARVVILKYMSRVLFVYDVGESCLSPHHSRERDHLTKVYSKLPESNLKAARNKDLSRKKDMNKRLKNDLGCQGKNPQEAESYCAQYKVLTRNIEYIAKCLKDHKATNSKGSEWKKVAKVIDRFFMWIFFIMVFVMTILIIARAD
Sequence of α9α10 nAChR, expressed in Xenopus laevis oocytes (Human) (Q9GZZ6 25-450, chain 2 of 2, further chain): as the sequence (Q9GZZ6 25-450 limits assumed) above

[8] = molecular target: α7 nAChR (nicotinic acetylcholine receptor), expressed in Xenopus laevis oocytes (Human) (UniProt P36544); experiment: cell-based or functional assay
Sequence of α7 nAChR (nicotinic acetylcholine receptor), expressed in Xenopus laevis oocytes (Human) (P36544 23-502): as the sequence (P36544 23-502 limits assumed) above

[9] = system: α7-nAChR transfected cells; format: cell-based
[10] = system: non-transfected HEK cells; format: cell-based, human
[11] = in vivo

Sequence of Pdcd4 (Q61823 whole entry): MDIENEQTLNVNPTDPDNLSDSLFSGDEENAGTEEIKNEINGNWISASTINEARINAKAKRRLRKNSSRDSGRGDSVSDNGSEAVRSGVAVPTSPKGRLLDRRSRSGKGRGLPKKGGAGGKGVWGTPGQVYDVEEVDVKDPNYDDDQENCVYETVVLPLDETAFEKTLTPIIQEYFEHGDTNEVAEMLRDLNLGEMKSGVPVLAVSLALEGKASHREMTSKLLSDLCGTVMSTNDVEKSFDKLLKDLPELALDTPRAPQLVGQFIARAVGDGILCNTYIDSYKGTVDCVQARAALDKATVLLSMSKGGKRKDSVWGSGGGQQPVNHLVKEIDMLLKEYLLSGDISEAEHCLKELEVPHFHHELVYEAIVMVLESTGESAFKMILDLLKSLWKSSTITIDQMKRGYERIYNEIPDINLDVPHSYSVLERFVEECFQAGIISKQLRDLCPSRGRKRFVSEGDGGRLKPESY

For “5′-GAGGCUAUGAGAGAAUUUATT-FL-3′ [siPdcd4]”, the “expression of Pdcd4 protein” value (Pdcd4 protein) was “knock down”, the “Pdcd4 expression in tissue” value (Pdcd4) was “decreases” and the BDNF production (BDNF [1]) was “enhance”. For the same compound, the “BDNF production in tissue” value (BDNF [2]) was “enhance”.

In the case of `CC[C@H](C)[C@H](NC(=O)[C@H](CC(=O)O)NC(=O)[C@H](CS)NC(=O)[C@H](CO)NC(=O)[C@@H](NC(=O)CNC(=O)[C@H](CC(C)C)NC(=O)[C@H](CCCNC(=N)N)NC(=O)[C@@H]1CCCN1C(=O)[C@H](CC(N)=O)NC(=O)[C@H](CCC(=O)O)NC(=O)[C@@H]1CCCN1C(=O)[C@H](CCSC)NC(=O)[C@H](Cc1c[nH]c2ccccc12)NC(=O)[C@@H](NC(=O)[C@@H](NC(=O)[C@@H](N)Cc1ccc(O)cc1)[C@@H](C)O)[C@@H](C)CC)[C@@H](C)O)C(=O)N[C@@H](Cc1ccccc1)C(=O)N[C@H](C(=O)N[C@@H](CC(N)=O)C(=O)N[C@@H](CO)C(=O)N[C@@H](CCCNC(=N)N)C(=O)NCC(=O)N[C@@H](CCCCN)C(=O)N[C@@H](CCCNC(=N)N)C(=O)N[C@@H](C)C(=O)N[C@@H](CO)C(=O)N[C@@H](CCCCN)C(=O)NCC(=O)O)[C@@H](C)O` [RVG peptide, reference compound], the inhibition at 100 µM (α7 nAChR [3]) is reported as greater than 80%, the IC50 (α9α10 nAChR) is reported as 153 ± 14 µM and the “inhibition of ACh-mediated currents on several other nAChR subtypes” value (nAChR subtypes) is reported as greater than 25%. For the same compound, the “nAChR subtype selectivity (in words)” value (nAChR subtypes) was “not target specific; also recorded: slight preference for the α7-nAChR; also recorded: not very selective”, the IC50 (α7 nAChR [4]; α7 nAChR potency (IC50, concentration response profile)) was 32 µM and 31 µM and the neuro-/cytotoxicity (HEK cell lines) was “not neuro- or cyto-toxic”.

In the case of `CSCC[C@H](NC(=O)[C@H](CCCCN)NC(=O)[C@H](CCCNC(=N)N)NC(=O)[C@@H](N)Cc1ccc(O)cc1)C(=O)N[C@@H](Cc1c[nH]c2ccccc12)C(=O)N[C@@H](CCSC)C(=O)N1CCC[C@H]1C(=O)N[C@@H](CCC(=O)O)C(=O)N[C@@H](CC(N)=O)C(=O)N1CCC[C@H]1C(=O)N[C@@H](CCCNC(=N)N)C(=O)N[C@@H](CC(C)C)C(=O)NCC(=O)N[C@H](C(=O)N[C@@H](CO)C(=O)N[C@@H](CS)C(=O)N[C@@H](CC(=O)O)C(=O)N[C@@H](C)C(=O)N[C@@H](Cc1ccccc1)C(=O)N[C@@H](CS)C(=O)N[C@@H](CO)C(=O)N[C@@H](CO)C(=O)N[C@@H](CCCNC(=N)N)C(=O)NCC(=O)N[C@@H](CCCCN)C(=O)N[C@H](C(=O)N[C@H](C(=O)N[C@@H](CCC(=O)O)C(=O)N[C@@H](CC(C)C)C(=O)NCC(=O)O)C(C)C)C(C)C)[C@@H](C)O` [lead peptide], the “inhibition of ACh-mediated currents on no more than two subtypes (positive hit criterion)” value (nAChR subtypes) is reported as greater than 80%, the “inhibition of ACh-mediated currents on the other tested nAChR subtypes” value (nAChR subtypes) is reported as less than 25% and the “nAChR subtype selectivity (in words)” value (nAChR subtypes) is reported as “minimally targeting nine other nAChR subtypes; also recorded: high selectivity”. The “α7 nAChR potency (IC50, concentration response profile)” value (α7 nAChR [4]) was “low μM”, the neuro-/cytotoxicity (HEK cell lines) was “not neuro- or cyto-toxic” and the “time to entry into neuronal-like cells post-exposure” value [5] was no more than 3 h. For the same compound, the “time visually present in neuronal-like cells” value [5] was “up to 72 hrs”.

For CDAFCSSRGKVVELG [α-btx Region 3], the “effect of peptide regions on α7 nAChR mediated currents (in words)” value (“effect of peptide regions” below) (α7 nAChR [4]) was “inhibit”.

In the case of CDIFTNSRGKRASKG [RVG Region 3], the “effect of peptide regions” value (α7 nAChR [4]) is reported as “slightly antagonizes”.

For DMSO, the “cell viability, positive control” value [6] was “kills cells”.

For MPENPRLGTS [RVG Region 2], the “effect of peptide regions” value (α7 nAChR [4]) was “minimal effects”.

With “RVG peptide (rabies viral glycoprotein peptide)” the potency (concentration response profile, inhibition of ACh-mediated currents) [7] was 153 µM, the potency (concentration response profile, inhibition of ACh-mediated currents) [8] was 31 µM and the potency (concentration response, inhibition of ACh-mediated currents) [8] was 32 µM.

For YRKMW [α-btx Region 1], the “effect of peptide regions” value (α7 nAChR [4]) was “inhibit”.

With “YRKMWMPENPRLGTSCDAFCSSRGKVVELGRRRRRRRRR [lead CPP-9dR]” the “delivery of siPdcd4-FL into α7-nAChR transfected cells” value [9] was “can facilitate delivery”, the “delivery of siPdcd4-FL into non-transfected HEK cells” value [10] was “not into non-transfected HEK cells” and the “siPdcd4-FL delivery into mouse CNS” value [11] was “can facilitate siPdcd4-FL delivery into mouse CNS”. For the same compound, the brain regional distribution ([11]; mouse) was “accumulate in the hippocampus and prefrontal cortex”.

For YTIW [RVG Region 1], the “effect of peptide regions” value (α7 nAChR [4]) was “minimal effects”.

With α-bungarotoxin [reference compound] the “cell entry / labeling (in words)” value [5] was “unable to enter”.
